Assay results from article PMC10501326, “A Phase I Study of the Pan-Notch Inhibitor CB-103 for Patients with Advanced Adenoid Cystic Carcinoma and Other Tumors” (Cancer Research Communications, 2023).
“And” between values parts separate entries of the source, which are not always exact repeats. Equal values may be shown once. “Also recorded” adds a separate entry of the source.

Key:
[1] = tested on: Notch target genes (HEY1, IL7R alpha, NOTCH1, 2 and 4); assay: Peripheral Notch target gene expression versus exposure (gene panel, in words); assay type: in vivo, human; details: patients with ACC on twice daily dosing (n = 13); up to 1,000 mg (500 mg twice daily)
Excerpt: (§1) Archival tumor tissue (not older than 6 months prior to screening) or fresh tumor biopsy was required to characterize Notch alteration status by targeted genomic sequencing and/or NICD1 expression (via IHC) among the confirmatory cohort at baseline. Repeat biopsy on cycle 2 day 15 and at disease progression was optional. Serial whole blood samples (and/or bone marrow samples and saliva among patients with T-ALL/T-LBL) were obtained on day 1 of cycles 1–6 to evaluate the dynamics of Notch gene expression. Peripheral blood was collected with PaxGene tubes and frozen at −20°C until processing. RNA was extracted (Qiagen RNeasy Micro kit) from peripheral whole blood and analyzed by Nanostring with percent change in expression levels reported with respect to baseline normalized values.
Percent change (%) in peripheral blood cell Notch target gene expression was monitored among a subset of patients with ACC receiving twice daily dosing (n = 13).

[2] = Phase I/II safety and tolerability: DLTs and treatment-related adverse events (CTCAE v4.03); assay type: in vivo
Excerpt: The study was an open-label, nonrandomized, phase I/II dose-escalation study with planned expansion cohorts. […] Part B was a potential expansion phase at the MTD/RP2D to determine preliminary evidence of antitumor activity and to confirm safety among patients stratified by preselected cancer indications.
Part A was based on a two-parameter Bayesian logistic regression model (BLRM) to investigate safety and tolerability of sequentially enrolled dose cohorts of 3–6 patients. The first 2 participants of each cohort were enrolled in a staggered approach with at least 1 day apart between first dosing.
12-lead electrocardiograms and Holter safety monitoring with periodic cardiac imaging was employed. Efficacy assessments used RECIST v1.1 applied to CT/MRI scans performed at screening and every 8 weeks; or evaluated complete remission with complete hematologic recovery by National Comprehensive Cancer Network guideline criteria for T-ALL/T-LBL. Adherence to study drug administration was evaluated using both patient diaries and capsule counts.
Secondary endpoints included assessment of clinical benefit rate [CBR; defined as achieving complete and/or partial response and/or stable disease (SD) at prespecified benchmarks], duration of response, progression-free survival (PFS) and overall survival (OS), and plasma pharmacokinetics.
The SS was the primary population for all safety and efficacy analyses, except for determination of dose-DLT relationship.
Under this model, and accounting for dropouts and some additional patients enrolled to each cohort, approximately 55 patients were anticipated to enroll in dose escalation and approximately 45 patients in the confirmatory phase. […] All statistical analyses were analyzed using SAS v9.4 software.

NOTCH1 = assay: Peripheral whole blood Notch target gene expression (Nanostring); assay type: in vivo, human; details: twice daily dosing, vs baseline
Excerpt: as §1

HEY1 = assay: as above; assay type: in vivo, human; details: twice daily dosing, vs baseline
Excerpt: as §1

NOTCH4 = assay: as above; assay type: in vivo, human; details: twice daily dosing, vs baseline
Excerpt: as §1

NOTCH 2 = assay: as above; assay type: in vivo, human; details: twice daily dosing, vs baseline
Excerpt: as §1

IL7R alpha = assay: as above; assay type: in vivo, human; details: twice daily dosing, vs baseline
Excerpt: as §1

[3] = design: method as in PMID 32601208; details: single agent and in combination with targeted and cytotoxic therapies; cited from earlier work
[4] = N = 79, per-patient, CTCAE v4.03
[5] = individual patient, total dose 800 mg
[6] = individual patients, total dose 500 mg
[7] = individual patients, total dose 600 mg
[8] = individual patients, total dose 1000 mg

## CC(C)(C)c1ccc(Oc2ccc(N)cn2)cc1 [CB-103]
[1]
  Peripherally measured Notch target gene expression levels versus exposure/dose: downregulation; also recorded: declined with increasing exposure
[2]; 12 dose-escalation cohorts (n = 64)
  Number of DLTs observed: Two
[2]; 5 days on, 2 days off weekly
  Recommended phase II dose (RP2D): 500 mg twice daily
[2]; CH8 522 mg QD, N=4
  N DLT: 1
[2]; CH11 400 mg BID, 5/2, N=6
  N DLT: 1
[2]; N = 79
  Grade 4 TRAE elevated lipase: ^aThe two TRAEs classified as grade 4 were elevated lipase (one event) and elevated liver function tests (one event).
  Grade 4 TRAE elevated liver function tests: ^aThe two TRAEs classified as grade 4 were elevated lipase (one event) and elevated liver function tests (one event).
[2]; [4]
  TRAE Anemia, any grade: 13 (16) N (%)
  TRAE Anemia, grade 1–2: 9 (11) N (%)
  TRAE Anemia, grade 3: 4 (5) N (%)
  TRAE Any AE, any grade: 60 (76) N (%)
  TRAE Any AE, grade 1–2: 47 (60) N (%)
  TRAE Any AE, grade 3: 13 (16) N (%)
  TRAE Any AE, grade 4: 2 (3) N (%)
  TRAE Blood and lymphatic system disorders, any grade: 13 (17) N (%)
  TRAE Blood and lymphatic system disorders, grade 1–2: 9 (11) N (%)
  TRAE Blood and lymphatic system disorders, grade 3: 4 (5) N (%)
  TRAE Diarrhea, any grade: 10 (13) N (%)
  TRAE Diarrhea, grade 1–2: 10 (13) N (%)
  TRAE Dyschromatopsia, any grade: 15 (19) N (%)
  TRAE Dyschromatopsia, grade 1–2: 15 (19) N (%)
  TRAE Dyspepsia, any grade: 10 (13) N (%)
  TRAE Dyspepsia, grade 1–2: 10 (13) N (%)
  TRAE Eye disorders, any grade: 37 (47) N (%)
  TRAE Eye disorders, grade 1–2: 36 (46) N (%)
  TRAE Eye disorders, grade 3: 1 (1) N (%)
  TRAE Fatigue, any grade: 9 (11) N (%)
  TRAE Fatigue, grade 1–2: 9 (11) N (%)
  TRAE Gastrointestinal disorders, any grade: 39 (49) N (%)
  TRAE Gastrointestinal disorders, grade 1–2: 38 (48) N (%)
  TRAE Gastrointestinal disorders, grade 3: 1 (1) N (%)
  TRAE General disorders and administration site conditions, grade 1–2: 9 (11) N (%)
  TRAE General disorders and administration site conditions, grade 3: 1 (1) N (%)
  TRAE Laboratory investigations, any grade: 13 (16) N (%)
  TRAE Laboratory investigations, grade 1–2: 8 (10) N (%)
  TRAE Laboratory investigations, grade 3: 5 (6) N (%)
  TRAE Nausea, any grade: 17 (22) N (%)
  TRAE Nausea, grade 1–2: 17 (22) N (%)
  TRAE Skin and subcutaneous tissue disorders, any grade: 8 (10) N (%)
  TRAE Skin and subcutaneous tissue disorders, grade 1–2: 6 (8) N (%)
  TRAE Skin and subcutaneous tissue disorders, grade 3: 2 (3) N (%)
  TRAE Vision blurred, any grade: 12 (15) N (%)
  TRAE Vision blurred, grade 1–2: 12 (15) N (%)
  TRAE Visual impairment, any grade: 8 (10) N (%)
  TRAE Visual impairment, grade 1–2: 7 (9) N (%)
  TRAE Visual impairment, grade 3: 1 (1) N (%)
  TRAE Vomiting, any grade: 9 (11) N (%)
  TRAE Vomiting, grade 1–2: 8 (10) N (%)
  TRAE Vomiting, grade 3: 1 (1) N (%)
[2]; SS population (n = 79)
  Grade 3 or 4 TRAEs, number reported: 26
[2]; all patients
  Patients who interrupted or required dose adjustment: 32 patients (%)
[2]; cohort 8 (552 mg daily dose)
  DLT: patients with asymptomatic grade 3 elevation in gamma-glutamyl transferase leading to drug discontinuation: 1 patient
[2]; cohort 11 (400 mg twice daily, 5 days on and 2 off each week), dose interruption, continued at reduced dose
  DLT observed in cohort 11: grade 3 visual impairment
[2]; dose escalation up to 500 mg twice daily 5/2
  MTD: not reached
[2]; in vivo
  Resumed at the dose prior to interruption: 81 % of the time
[2]; n = 79
  Deaths related to study treatment: no drug-related deaths
  Grade 3–4 TRAE anemia: 7 events
  Grade 3–4 TRAE elevated liver function tests: 5 events
  Grade 3–4 TRAE elevated serum amylase or lipase: 3 events
  Patients with grade 3–4 TRAEs: 15 patients (%) and 15 (19%) patients (%)
[2]; range: 1–14
  Median duration of interruption for TRAEs: 5 days
NOTCH1; [5]
  NOTCH1 percent change in peripheral expression: -15.5%
NOTCH1; [6]
  NOTCH1 percent change in peripheral expression: 39.2% and -7.1%
NOTCH1; [7]
  NOTCH1 percent change in peripheral expression: -28.1% and -41.2% and -35.7% and -14.2% and -39.7%
NOTCH1; [8]
  NOTCH1 percent change in peripheral expression: -8.7% and -0.1% and -58.3% and -20.2% and -13.3%
HEY1; [5]
  HEY1 percent change in peripheral expression: 52.3%
HEY1; [6]
  HEY1 percent change in peripheral expression: -52.0%
HEY1; [7]
  HEY1 percent change in peripheral expression: 5.0% and -36.1% and 30.3% and -25.6%
HEY1; [8]
  HEY1 percent change in peripheral expression: 11.7% and -71.3% and -75.9% and -55.2% and -57.8%
NOTCH4; [5]
  NOTCH4 percent change in peripheral expression: -3.5%
NOTCH4; [6]
  NOTCH4 percent change in peripheral expression: 37.6% and -16.9%
NOTCH4; [7]
  NOTCH4 percent change in peripheral expression: 34.0% and -49.7% and -7.9% and 11.5% and 32.9%
NOTCH4; [8]
  NOTCH4 percent change in peripheral expression: -20.8% and -40.4% and 22.0% and 4.5% and 29.7%
NOTCH 2; [5]
  NOTCH 2 percent change in peripheral expression: -9.4%
NOTCH 2; [6]
  NOTCH 2 percent change in peripheral expression: 19.9% and -9.6%
NOTCH 2; [7]
  NOTCH 2 percent change in peripheral expression: -25.2% and -38.4% and -5.5% and -14.8% and -41.1%
NOTCH 2; [8]
  NOTCH 2 percent change in peripheral expression: -31.8% and -14.2% and -39.3% and -15.2% and 5.1%
IL7R alpha; [5]
  IL7R alpha percent change in peripheral expression: -29.7%
IL7R alpha; [6]
  IL7R alpha percent change in peripheral expression: 32.3% and 33.5%
IL7R alpha; [7]
  IL7R alpha percent change in peripheral expression: 58.3% and -58.0% and -24.8% and -2.9% and -29.3%
IL7R alpha; [8]
  IL7R alpha percent change in peripheral expression: -53.6% and 3.5% and -16.2% and 0.2% and -41.7%
[3]
  Anticancer activity: potent anticancer activity
